Experimental data reported in ChEMBL document CHEMBL3797164, “Transfer of SAR information from hypotensive indazole to indole derivatives acting at α-adrenergic receptors: In vitro and in vivo studies” (Eur J Med Chem, 2016).

What was measured:
[1] = target: T1, Adrenergic receptor alpha-1 (Rattus norvegicus, UniProt P15823+P23944+P43140); experiment: Displacement of [3H]prazosine from Alpha-1 adrenergic receptor in Sprague-Dawley rat brain P2 membranes after […] by liquid scintillation counting
T1 sequence (P15823 whole entry): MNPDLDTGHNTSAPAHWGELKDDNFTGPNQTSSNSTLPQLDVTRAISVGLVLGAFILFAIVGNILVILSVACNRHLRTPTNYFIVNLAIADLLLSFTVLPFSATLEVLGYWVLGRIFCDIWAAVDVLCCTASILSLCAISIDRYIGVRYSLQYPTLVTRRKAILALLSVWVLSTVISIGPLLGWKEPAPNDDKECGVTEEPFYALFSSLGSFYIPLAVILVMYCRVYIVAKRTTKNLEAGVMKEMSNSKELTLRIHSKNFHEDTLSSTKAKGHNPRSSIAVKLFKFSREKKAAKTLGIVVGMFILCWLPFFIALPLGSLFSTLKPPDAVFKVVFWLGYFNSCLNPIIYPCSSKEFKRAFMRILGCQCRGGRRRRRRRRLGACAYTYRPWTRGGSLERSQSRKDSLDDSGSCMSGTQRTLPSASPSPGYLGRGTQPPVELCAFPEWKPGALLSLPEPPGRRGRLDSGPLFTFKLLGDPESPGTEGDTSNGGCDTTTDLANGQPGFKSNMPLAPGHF
T1 sequence (P23944 whole entry): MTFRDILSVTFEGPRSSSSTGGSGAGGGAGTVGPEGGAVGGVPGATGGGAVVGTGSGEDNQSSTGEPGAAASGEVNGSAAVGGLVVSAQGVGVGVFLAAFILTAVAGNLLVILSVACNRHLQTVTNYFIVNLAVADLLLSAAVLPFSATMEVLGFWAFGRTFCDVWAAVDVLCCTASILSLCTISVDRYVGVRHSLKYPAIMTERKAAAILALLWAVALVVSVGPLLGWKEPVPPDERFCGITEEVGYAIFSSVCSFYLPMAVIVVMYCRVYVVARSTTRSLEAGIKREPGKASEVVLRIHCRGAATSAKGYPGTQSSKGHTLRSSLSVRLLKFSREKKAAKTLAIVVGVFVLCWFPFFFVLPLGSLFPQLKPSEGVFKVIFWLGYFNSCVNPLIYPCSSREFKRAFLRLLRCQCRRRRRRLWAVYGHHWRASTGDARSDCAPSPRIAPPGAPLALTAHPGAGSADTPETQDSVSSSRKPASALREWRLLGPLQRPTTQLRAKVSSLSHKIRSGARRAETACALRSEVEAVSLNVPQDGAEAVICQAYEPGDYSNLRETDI
T1 sequence (P43140 whole entry): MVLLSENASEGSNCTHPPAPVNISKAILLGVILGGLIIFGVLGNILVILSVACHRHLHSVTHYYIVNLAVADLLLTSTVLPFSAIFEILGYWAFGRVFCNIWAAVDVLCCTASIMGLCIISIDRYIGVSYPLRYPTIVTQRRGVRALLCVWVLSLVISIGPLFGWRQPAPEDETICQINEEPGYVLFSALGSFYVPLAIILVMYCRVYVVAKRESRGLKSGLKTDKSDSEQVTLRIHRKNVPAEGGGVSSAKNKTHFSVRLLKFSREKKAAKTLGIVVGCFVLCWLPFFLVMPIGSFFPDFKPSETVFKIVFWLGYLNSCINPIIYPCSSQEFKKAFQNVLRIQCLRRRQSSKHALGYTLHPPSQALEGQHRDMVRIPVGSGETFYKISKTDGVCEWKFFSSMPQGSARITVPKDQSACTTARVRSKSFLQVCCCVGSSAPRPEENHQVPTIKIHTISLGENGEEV

Nischarin = Nischarin (Rattus norvegicus, UniProt Q4G017); experiment: Displacement of [3H]clonidine from Imidazoline receptor 1 in Sprague-Dawley rat kidney P2 membranes after […] by liquid scintillation counting
[2] = Displacement of [3H]2BFI from Imidazoline receptor 2 in Sprague-Dawley rat brain P2 membrans after […] by liquid scintillation counting
Rattus norvegicus [3] = experiment: Antihypertensive activity in anesthetized Wistar rat assessed as change in mean arterial blood pressure at 0.1 mg/kg, iv administered as bolus dose after 30 mins (reference value: -1.3 mmHg); assay type: functional
Rattus norvegicus [4] = experiment: Antihypertensive activity in anesthetized Wistar rat assessed as change in mean arterial blood pressure at 0.1 mg/kg, iv administered as bolus dose after 60 mins (reference value: -3.5 mmHg); assay type: functional
Rattus norvegicus [5] = experiment: Antihypertensive activity in anesthetized Wistar rat assessed as change in heart rate at 0.1 mg/kg, iv administered as bolus dose after 2 mins (reference value: -0.6 […]); assay type: functional
Rattus norvegicus [6] = experiment: Antihypertensive activity in anesthetized Wistar rat assessed as change in heart rate at 0.1 mg/kg, iv administered as bolus dose after 5 mins (reference value: -2.9 […]); assay type: functional
Rattus norvegicus [7] = experiment: Antihypertensive activity in anesthetized Wistar rat assessed as change in heart rate at 0.1 mg/kg, iv administered as bolus dose after 30 mins (reference value: -8.6 […]); assay type: functional
Rattus norvegicus [8] = experiment: Antihypertensive activity in anesthetized Wistar rat assessed as change in heart rate at 0.1 mg/kg, iv administered as bolus dose after 60 mins (reference value: -6.2 […]); assay type: functional

Chain of Nischarin (Q4G017 whole entry): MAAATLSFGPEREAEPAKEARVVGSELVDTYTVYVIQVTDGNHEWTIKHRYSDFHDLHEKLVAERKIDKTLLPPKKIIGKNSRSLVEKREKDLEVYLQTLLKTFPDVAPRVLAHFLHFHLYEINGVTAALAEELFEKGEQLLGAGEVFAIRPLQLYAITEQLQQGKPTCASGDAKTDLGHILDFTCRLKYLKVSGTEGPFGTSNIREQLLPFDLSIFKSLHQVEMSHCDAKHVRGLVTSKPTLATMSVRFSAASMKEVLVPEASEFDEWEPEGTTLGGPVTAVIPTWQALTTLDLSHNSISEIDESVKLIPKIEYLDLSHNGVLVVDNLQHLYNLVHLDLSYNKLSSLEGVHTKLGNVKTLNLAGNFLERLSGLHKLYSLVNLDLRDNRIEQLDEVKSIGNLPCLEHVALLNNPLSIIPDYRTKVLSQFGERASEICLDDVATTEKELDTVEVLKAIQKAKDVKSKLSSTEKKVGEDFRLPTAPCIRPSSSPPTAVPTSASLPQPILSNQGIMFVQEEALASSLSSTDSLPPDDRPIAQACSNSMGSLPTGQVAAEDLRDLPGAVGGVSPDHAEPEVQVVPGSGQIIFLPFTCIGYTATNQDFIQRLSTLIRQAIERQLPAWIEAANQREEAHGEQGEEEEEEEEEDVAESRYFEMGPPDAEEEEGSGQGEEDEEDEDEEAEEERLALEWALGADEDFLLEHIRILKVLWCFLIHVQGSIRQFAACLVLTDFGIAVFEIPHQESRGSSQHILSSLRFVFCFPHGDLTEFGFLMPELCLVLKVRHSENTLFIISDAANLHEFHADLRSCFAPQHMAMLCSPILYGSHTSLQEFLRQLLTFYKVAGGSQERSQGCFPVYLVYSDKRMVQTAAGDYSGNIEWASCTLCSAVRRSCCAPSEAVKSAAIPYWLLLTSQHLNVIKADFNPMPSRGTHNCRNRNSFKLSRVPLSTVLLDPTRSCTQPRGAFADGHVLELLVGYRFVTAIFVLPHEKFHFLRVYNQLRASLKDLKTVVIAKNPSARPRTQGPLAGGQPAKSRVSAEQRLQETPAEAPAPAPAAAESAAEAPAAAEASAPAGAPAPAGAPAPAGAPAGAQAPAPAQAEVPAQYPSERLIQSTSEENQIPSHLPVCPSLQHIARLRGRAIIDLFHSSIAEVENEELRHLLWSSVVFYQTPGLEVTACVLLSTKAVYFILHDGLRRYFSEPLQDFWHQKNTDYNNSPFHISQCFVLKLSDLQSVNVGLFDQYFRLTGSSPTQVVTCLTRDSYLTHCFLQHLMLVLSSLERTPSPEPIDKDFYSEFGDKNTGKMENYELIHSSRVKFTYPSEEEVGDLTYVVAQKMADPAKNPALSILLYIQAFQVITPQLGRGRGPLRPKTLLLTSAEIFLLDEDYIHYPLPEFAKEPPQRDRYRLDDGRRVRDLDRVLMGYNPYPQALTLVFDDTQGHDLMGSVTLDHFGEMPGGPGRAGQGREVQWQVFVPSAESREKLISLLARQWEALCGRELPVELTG

| SMILES | Ki [1] [nM] | Ki (Nischarin) [nM] | Ki [2] [nM] | Activity (Rattus norvegicus [3]) [mmHg] | Activity (Rattus norvegicus [4]) [mmHg] | Activity (Rattus norvegicus [5]) [bpm] | Activity (Rattus norvegicus [6]) [bpm] | Activity (Rattus norvegicus [7]) [bpm] | Activity (Rattus norvegicus [8]) [bpm] |
| --- | --- | --- | --- | --- | --- | --- | --- | --- | --- |
| Cl.Clc1cccc2ccn(CC3=NCCN3)c12 | 6.82 | 10300 | 71.1 | -56.1 | -61.2 | -89.6 | -132 | -125.4 | -129.4 |
| Br.Cc1cccc2ccn(CC3=NCCN3)c12 | 24.97 | 1000 | 1160 | -46.5 | -40.9 | -61.3 | -83.3 | -111.7 | -87.7 |
| Cl.c1ccc2c(c1)ccn2CC1=NCCN1 | 61.4 | 81400 | 197 | -27.9 | -38.5 | -138.4 | -100.1 | -105.3 | -75.1 |
